# Reference: patent US9487819B2, “Quantitative genetically encoded optical reporter construct” (Cornell University, priority 2009, dated 2016)
# B1: Photonus pyralis luciferase: 62 kD firefly luciferase, SEQ ID NO: 1 (protein, listed as Photonis pyralis)
# chain: MEDAKNIKKGPAPFYPLEDGTAGEQLHKAMKRYALVPGTIAFTDAHIEVDITYAEYFEMSVRLAEAMKRYGLNTNHRIVVCSENSLQFFMPVLGALFIGVAVAPANDIYNERELLNSMGISQPTVVFVSKKGLQKILNVQKKLPIIQKIIIMDSKTDYQGFQSMYTFVTSHLPPGFNEYDFVPESFDRDKTIALIMNSSGSTGLPKGVALPHRTACVRFSHARDPIFGNQIIPDTAILSVVPFHHGFGMFTTLGYLICGFRVVLMYRFEEELFLRSLQDYKIQSALLVPTLFSFFAKSTLIDKYDLSNLHEIASGGAPLSKEVGEAVAKRFHLPGIRQGYGLTETTSAILITPEGDDKPGAVGKVVPFFEAKVVDLDTGKTLGVNQRGELCVRGPMIMSGYVNNPEATNALIDKDGWLHSGDIAYWDEDEHFFIVDRLKSLIKYKGYQVAPAELESILLQHPNIFDAGVAGLPDDDAGELPAAVVVLEHGKTMTEKEIVDYVASQVTTAKKLRGGVVFVDEVPKGLTGKLDARKIREILIKAKKGGKIAV
# Experiments:
# [1] = system: [ATP] in nerve terminals of neurons; experiment: Presynaptic [ATP] at rest reported by Syn-ATP under metabolic inhibitors; format: cell-based, rat; details: resting neurons, TTX to block action potential firing (FIG. 15)
# Protocol: All experiments were performed using dissociated primary hippocampal neurons according to procedures that have been previously described in Ryan T A. J. Neurosci 19:1317-1323 (1999). Briefly, hippocampi from newborn rats (P2-P4) were removed and dissected. Prior to cell dissociation, the dendate gyrus was removed leaving a relatively pure population of CA3 & CA1 excitatory neurons and interneurons. […] For fluorescence and luminescence experiments cover slips were mounted in a rapid switching low volume perfusion chamber equipped with stimulus electrodes and mounted on the stage of an inverted microscope equipped with EMCCD detection and laser-based wide-field illumination. Chemiluminescence was imaged using the same apparatus as the fluorescence, however no excitation source was used during the detection of light.
# On DIV 14-25, neurons were mounted in a custom-built physiological perfusion chamber with temperature control that allows direct control of field stimulation to drive action potential firing. […] Luminescence and fluorescence imaging were performed using an EM-CCD Andor Ixon, thinned back-illuminated sensor through a 1.3 NA 40× fluar objective. Neurons expressing Syn-ATP were perfused with 20 mM luciferin, one minute prior to and throughout the period during which the luminescence images was obtained. […]
# [2] = maximal number of photons emitted; cited from earlier work
Molecule,change of [ATP] at rest [1],kcat [2]
O=CC[C@@H](O)[C@H](O)[C@H](O)CO [2-deoxyglucose],decreases,
CC[C@H]1/C=C/C=C/C[C@@H](C)[C@H](O)[C@@](C)(O)C(=O)[C@@H](C)[C@H](O)[C@@H](C)C(=O)[C@@H](C)[C@H](O)[C@@H](C)/C=C/C(=O)O[C@@H]2[C@H](C)[C@H](CC1)O[C@]1(CC[C@H](C)[C@H](C[C@@H](C)O)O1)[C@H]2C [oligomycin],does not change,
B1,,approximately 1.6 per sec
